Data on eight compounds can be found in US20240148821A1, “PHARMACEUTICAL USE OF CYCLIC PEPTIDE COMPOUND” (CHUGAI SEIYAKU KABUSHIKI KAISHA, priority 2021, published 2024).

As usually defined, the IC50 is the midpoint of a concentration-inhibition curve.

The structures appear in SMILES notation. Numbered stars: 1 amine (or outer) side, 2 acyl side, 3 side chain; on linkers, the order of the positions; unused ones are H or OH. Bridge positions count the residues as written; N and C are the ends. Square brackets hold non-standard residues; d marks the D form. Peptide text beside a SMILES is read from it. * marks the point of attachment. hPhe(3,5-F2-4-CF3) = N[C@@H](CCc1cc(F)c(C(F)(F)F)c(F)c1)C(=O)O; hPhe(3-Cl-4-CF3) = N[C@@H](CCc1ccc(C(F)(F)F)c(Cl)c1)C(=O)O; hPhe(3-F,4-CF3) = N[C@@H](CCc1ccc(C(F)(F)F)c(F)c1)C(=O)O; NMePhe(4-CF3) = CN[C@@H](Cc1ccc(C(F)(F)F)cc1)C(=O)O; 3Oxa8azabicyclo(3.2.1)octane = C1CC2COCC1N2*; NEtPhe(4-Me) = CCN[C@@H](Cc1ccc(C)cc1)C(=O)O; NMePhe(4-Me) = CN[C@@H](Cc1ccc(C)cc1)C(=O)O; NMedβ3hAla = C[C@H](CC(=O)[*:2])N(C)[*:1]; NMeGly(cPent) = CN[C@H](C(=O)O)C1CCCC1; Pro(4,4-F2) = O=C(O)[C@@H]1CC(F)(F)CN1; NMeGly(cBu) = CN[C@H](C(=O)O)C1CCC1; NMeCha = CN[C@@H](CC1CCCCC1)C(=O)O; Hyp = O=C(O)[C@@H]1C[C@@H](O)CN1; NMeChg = CN[C@H](C(=O)O)C1CCCCC1; NMeI = CC[C@H](C)[C@H](NC)C(=O)O; NMeD = CN[C@@H](CC(=O)O)C(=O)O; NMeL = CN[C@@H](CC(C)C)C(=O)O; NMeV = CN[C@H](C(=O)O)C(C)C; d(β3hA) = C[C@@H](N)CC(=O)O; NMeS = CN[C@@H](CO)C(=O)O; NMeA = CN[C@@H](C)C(=O)O; NMeAib = CNC(C)(C)C(=O)O; Piperidide = C1CCN(*)CC1; Pyrrolidide = C1CCN(*)C1; Ac5c = NC1(C(=O)O)CCCC1; Aze = O=C(O)[C@@H]1CCN1; Ac4c = NC1(C(=O)O)CCC1; CH2CMe2OH = CC(C)(O)C*; Aib = CC(C)(N)C(=O)O; Isopentyl = CC(C)CC*; NEtG = CCNCC(=O)O; Sar = CNCC(=O)O; Propyl = CCC*

The target of the test is protein-protein interaction between Kras and SOS1 (biotin-tagged human Kras loaded with GDP, His-tagged human SOS1) (Homo sapiens (Human), UniProt P01116, G12D). Briefly: Protein-protein interaction inhibition between Kras and SOS1 (KrasG12D-SOS PPI) using AlphaScreen.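 Further: kras produced in E. coli, Ni-coupled donor beads and streptavidin acceptor beads, excitation 680 nm with emission detected at 520–620 nm via singlet oxygen transfer.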 Format: biochemical. The conditions noted are these: AlphaScreen; biotin-tagged human Kras loaded with GDP, His-tagged human SOS1; read-out: KRAS G12D-SOS PPI IC50. A general note: In Alpha technology, singlet oxygen from a donor bead excites a nearby acceptor bead.
`CCCOC[C@H]1C(=O)N(C)CC(=O)N[C@@H](CCc2ccc(C(F)(F)F)c(Cl)c2)C(=O)N2CCC[C@H]2C(=O)NC2(CCCC2)C(=O)N(C)[C@@H](C2CCCC2)C(=O)N(C)[C@H](C(=O)N2C3CCC2COC3)CC(=O)N(C)[C@@H](CC(C)C)C(=O)N[C@@H]([C@@H](C)CC)C(=O)N[C@@H](C)C(=O)N2CC[C@H]2C(=O)N1C` [Compound 1299] ([NMeL]IA[Aze][NMeS](Propyl)[Sar][hPhe(3-Cl-4-CF3)]P[Ac5c][NMeGly(cPent)][NMeD]-{3Oxa8azabicyclo(3.2.1)octane}; lactam N-11): the IC50 is 3.6 nM.
Consider `CC[C@H](C)[C@@H]1NC(=O)[C@H](CC(C)C)N(C)C(=O)C[C@@H](C)N(C)C(=O)[C@H](C2CCCC2)N(C)C(=O)C2(CCCC2)NC(=O)[C@@H]2CC(F)(F)CN2C(=O)[C@H](CCc2cc(F)c(C(F)(F)F)c(F)c2)NC(=O)CN(C)C(=O)[C@H](Cc2ccc(C(F)(F)F)cc2)N(C)C(=O)[C@@H]2CCN2C(=O)[C@H](C)N(C)C1=O` [Compound 900] (cyclo([Ac5c][NMeGly(cPent)][NMedβ3hAla][NMeL]I[NMeA][Aze][NMePhe(4-CF3)][Sar][hPhe(3,5-F2-4-CF3)][Pro(4,4-F2)])), for which the IC50 came out at 0.84 nM.
Take `CC[C@H](C)[C@@H]1NC(=O)[C@H](CC(C)C)N(C)C(=O)C[C@@H](C)NC(=O)[C@H](C(C)C)N(C)C(=O)C2(CCCC2)NC(=O)[C@@H]2CCCN2C(=O)[C@H](CCc2ccc(C(F)(F)F)c(Cl)c2)NC(=O)CN(C)C(=O)[C@H](Cc2ccc(C)cc2)N(C)C(=O)[C@@H]2CCN2C(=O)[C@H](C)N(C)C1=O` [Compound 1801] (cyclo([Ac5c][NMeV][d(β3hA)][NMeL]I[NMeA][Aze][NMePhe(4-Me)][Sar][hPhe(3-Cl-4-CF3)]P)): the IC50 worked out at 2.9 nM.
In the case of `CC[C@H](C)[C@@H]1NC(=O)[C@H](C)N(C)C(=O)C[C@@H](C)N(C)C(=O)[C@H](C2CCC2)N(C)C(=O)C(C)(C)N(C)C(=O)[C@@H]2CCCN2C(=O)[C@H](CCc2ccc(C(F)(F)F)c(Cl)c2)NC(=O)CN(C)C(=O)[C@H](CC2CCCCC2)N(C)C(=O)[C@@H]2CCN2C(=O)[C@H](C)N(C)C1=O` [Compound 2157] (cyclo([Aze][NMeCha][Sar][hPhe(3-Cl-4-CF3)]P[NMeAib][NMeGly(cBu)][NMedβ3hAla][NMeA]I[NMeA])), the IC50 was 6.9 nM.
For `CCO[C@@H]1C[C@H]2C(=O)NC3(CCC3)C(=O)N(C)[C@@H](C3CCCCC3)C(=O)N(C)[C@H](C)CC(=O)N(C)[C@@H](CC(C)C)C(=O)N[C@@H]([C@@H](C)CC)C(=O)N(C)[C@@H](C)C(=O)N3CC[C@H]3C(=O)N(CC)[C@@H](Cc3ccc(C)cc3)C(=O)N(C)CC(=O)N[C@@H](CCc3ccc(C(F)(F)F)c(Cl)c3)C(=O)N2C1` [Compound 928] (cyclo([Ac4c][NMeChg][NMedβ3hAla][NMeL]I[NMeA][Aze][NEtPhe(4-Me)][Sar][hPhe(3-Cl-4-CF3)][Hyp](Et))) the value was 27 nM; for `CC[C@H](C)[C@@H]1NC(=O)[C@H](CC(C)C)N(C)C(=O)C[C@@H](C)NC(=O)[C@H](CC(C)C)N(C)C(=O)C(C)(C)NC(=O)[C@H](COCC(C)(C)O)N(C)C(=O)[C@H](CCc2ccc(C(F)(F)F)c(Cl)c2)NC(=O)CN(CC)C(=O)[C@H](COCCC(C)C)N(C)C(=O)CN(C)C(=O)CN(C)C1=O` [Compound 1516] (cyclo([Aib][NMeL][d(β3hA)][NMeL]I[Sar][Sar][NMeS](Isopentyl)[NEtG][hPhe(3-Cl-4-CF3)][NMeS](CH2CMe2OH))), 340 nM.
The result for `CC[C@H](C)[C@@H]1NC(=O)[C@H](CC(C)C)N(C)C(=O)C[C@@H](C(=O)N2CCCC2)N(C)C(=O)[C@H](C2CCCC2)N(C)C(=O)C2(CCCC2)NC(=O)[C@@H]2CCCN2C(=O)[C@H](CCc2ccc(C(F)(F)F)c(F)c2)NC(=O)CN(C)C(=O)[C@H](C2CCCC2)N(C)C(=O)[C@@H]2CCN2C(=O)[C@H](C)N(C)C1=O` [Compound 918] ([NMeL]I[NMeA][Aze][NMeGly(cPent)][Sar][hPhe(3-F,4-CF3)]P[Ac5c][NMeGly(cPent)][NMeD]-Pyrrolidide; lactam N-11) reads 0.89 nM; that for `CC[C@H](C)[C@@H]1NC(=O)[C@H]([C@@H](C)CC)N(C)C(=O)C[C@@H](C(=O)N2CCCCC2)N(C)C(=O)[C@H](C(C)C)N(C)C(=O)C2(CCCC2)NC(=O)[C@@H]2CCCN2C(=O)[C@H](CCc2ccc(C(F)(F)F)c(Cl)c2)NC(=O)CN(C)C(=O)[C@H](CC2CCCCC2)N(C)C(=O)[C@@H]2CCN2C(=O)[C@H](C)N(C)C1=O` [Compound 1863] ([NMeI]I[NMeA][Aze][NMeCha][Sar][hPhe(3-Cl-4-CF3)]P[Ac5c][NMeV][NMeD]-Piperidide; lactam N-11), 10 nM.
